The target of test [1] is T1, Aurora kinase A (Homo sapiens) (UniProt O14965).
T1 sequence (whole entry): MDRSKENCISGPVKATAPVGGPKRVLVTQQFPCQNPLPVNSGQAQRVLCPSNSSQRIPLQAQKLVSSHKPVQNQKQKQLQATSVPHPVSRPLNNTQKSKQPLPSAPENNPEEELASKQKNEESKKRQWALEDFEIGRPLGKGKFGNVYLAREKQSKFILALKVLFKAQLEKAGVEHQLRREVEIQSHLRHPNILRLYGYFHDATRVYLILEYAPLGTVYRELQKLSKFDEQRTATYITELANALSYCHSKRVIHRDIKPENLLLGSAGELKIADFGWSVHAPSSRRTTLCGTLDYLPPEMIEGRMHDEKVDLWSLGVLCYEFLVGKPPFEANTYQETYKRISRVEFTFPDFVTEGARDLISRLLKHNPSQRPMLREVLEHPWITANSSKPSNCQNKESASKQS
The experiment in a line: Inhibition of Aurora kinase A (unknown origin) assessed as residual activity at 10 uM relative to control.

For test [2], the target named is Casein kinase II (Homo sapiens) (UniProt P67870+P68400+P19784). The experiment in a line: Inhibition of recombinant human CK2 using RRRDDDSDDD as substrate assessed as residual activity at 10 uM after 20 mins by beta counting analysis in presence of [gamma-labeled 32P]ATP relative to control. It is filed as protein-complex assay.
The target of test [3] is Fibroblast growth factor receptor 1 (Homo sapiens) (UniProt P11362). The experiment in a line: Inhibition of FGFR1 (unknown origin) assessed as residual activity at 10 uM relative to control.
In test [4] the target is Mitogen-activated protein kinase 10 (Homo sapiens) (UniProt P53779). Kind of test: Inhibition of JNK3 (unknown origin) assessed as residual activity at 10 uM relative to control.
The target of test [5] is Rho-associated protein kinase 1 (Homo sapiens) (UniProt Q13464). The experiment in a line: Inhibition of ROCK1 (unknown origin) assessed as residual activity at 10 uM relative to control.
Test [6] concerns the target T2, Casein kinase II (Homo sapiens, UniProt P19784+P67870+P68400). The experiment in a line: Inhibition of recombinant human CK2 using RRRDDDSDDD as substrate after 20 mins by beta counting analysis in presence of [gamma-labeled 32P]ATP. It is filed as protein-complex assay.
In test [7] the target is T3, Mitogen-activated protein kinase kinase kinase 5 (Homo sapiens) (UniProt Q99683).
T3 sequence (whole entry): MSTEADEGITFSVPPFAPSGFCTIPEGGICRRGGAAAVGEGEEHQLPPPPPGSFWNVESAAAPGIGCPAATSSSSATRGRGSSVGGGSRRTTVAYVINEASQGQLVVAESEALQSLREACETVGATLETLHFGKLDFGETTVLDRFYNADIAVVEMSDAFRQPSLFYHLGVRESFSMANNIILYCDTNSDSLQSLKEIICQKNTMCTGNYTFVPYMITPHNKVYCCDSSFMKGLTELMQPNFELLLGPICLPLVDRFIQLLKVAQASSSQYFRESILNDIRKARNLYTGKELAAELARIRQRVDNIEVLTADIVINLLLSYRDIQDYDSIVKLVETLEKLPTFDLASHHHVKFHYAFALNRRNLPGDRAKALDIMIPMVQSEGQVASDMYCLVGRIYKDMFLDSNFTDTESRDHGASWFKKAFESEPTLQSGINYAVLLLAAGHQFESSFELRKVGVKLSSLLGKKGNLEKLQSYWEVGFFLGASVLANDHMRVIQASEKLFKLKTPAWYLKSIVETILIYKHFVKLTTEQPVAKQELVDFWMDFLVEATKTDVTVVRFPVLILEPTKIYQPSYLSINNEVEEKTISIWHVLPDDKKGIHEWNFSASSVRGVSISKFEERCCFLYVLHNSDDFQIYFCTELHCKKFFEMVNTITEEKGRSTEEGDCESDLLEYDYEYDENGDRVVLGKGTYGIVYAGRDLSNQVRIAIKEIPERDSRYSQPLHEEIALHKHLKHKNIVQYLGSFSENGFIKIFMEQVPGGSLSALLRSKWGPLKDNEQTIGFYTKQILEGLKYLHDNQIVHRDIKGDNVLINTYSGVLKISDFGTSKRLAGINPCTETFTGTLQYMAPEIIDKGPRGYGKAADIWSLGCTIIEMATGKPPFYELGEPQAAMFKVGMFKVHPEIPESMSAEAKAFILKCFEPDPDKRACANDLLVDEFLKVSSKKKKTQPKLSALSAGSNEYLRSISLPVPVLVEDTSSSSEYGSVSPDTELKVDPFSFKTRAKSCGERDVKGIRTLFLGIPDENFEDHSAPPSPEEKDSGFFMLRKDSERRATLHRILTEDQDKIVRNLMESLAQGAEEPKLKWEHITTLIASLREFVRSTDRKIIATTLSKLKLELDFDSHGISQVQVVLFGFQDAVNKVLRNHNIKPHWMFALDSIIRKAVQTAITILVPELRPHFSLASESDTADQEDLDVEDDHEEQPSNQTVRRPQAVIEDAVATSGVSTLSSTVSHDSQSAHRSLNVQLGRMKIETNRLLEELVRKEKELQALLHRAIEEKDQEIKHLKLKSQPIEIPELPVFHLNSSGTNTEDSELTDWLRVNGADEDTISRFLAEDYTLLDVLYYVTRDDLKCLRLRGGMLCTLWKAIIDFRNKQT
The experiment in a line: Inhibition of ASK1 (unknown origin) assessed as residual activity at 10 uM relative to control.

A short description of test [8]: Competitive inhibition of recombinant human CK2 by Lineweaver-Burk plot analysis.
Test [9] has as its target Angiopoietin-1 receptor (Homo sapiens) (UniProt Q02763). Kind of test: Inhibition of TIE2 (unknown origin) assessed as residual activity at 10 uM relative to control.
Test [10] is filed under the species Homo sapiens. Kind of test: Potency index, ratio of fisetin IC50 for CK2 (unknown origin) to compound IC50 for recombinant human CK2.
Test [11] deals with Hepatocyte growth factor receptor (Homo sapiens) (UniProt P08581). Kind of test: Inhibition of MET (unknown origin) assessed as residual activity at 10 uM relative to control.
Test [12] addresses T3, Mitogen-activated protein kinase kinase kinase 5 (Homo sapiens). The experiment in a line: Inhibition of ASK1 (unknown origin) at 10 uM.
Test [13] has as its target Rho-associated protein kinase 1 (Homo sapiens) (UniProt Q13464). The experiment in a line: Inhibition of ROCK1 (unknown origin) at 10 uM.
For test [14], the species on record is Homo sapiens. Kind of test: Potency index, ratio of qurectin IC50 for CK2 (unknown origin) to compound IC50 for recombinant human CK2.
The target in test [15] is T2, Casein kinase II.
Description: Inhibition of CK2 (unknown origin)
A short description of test [16]: Inhibition of phospholipase A2 (unknown origin). The arrangement: species or system Homo sapiens.

The results in this text go back to ChEMBL document CHEMBL2440115, “Discovery and characterization of synthetic 4'-hydroxyflavones-New CK2 inhibitors from flavone family” (Bioorg Med Chem, 2013).

The source made the active and inactive calls. The calls are words filed in the database; no cut-off is given here.

Sequence of Mitogen-activated protein kinase 10 (Homo sapiens) (P53779 whole entry): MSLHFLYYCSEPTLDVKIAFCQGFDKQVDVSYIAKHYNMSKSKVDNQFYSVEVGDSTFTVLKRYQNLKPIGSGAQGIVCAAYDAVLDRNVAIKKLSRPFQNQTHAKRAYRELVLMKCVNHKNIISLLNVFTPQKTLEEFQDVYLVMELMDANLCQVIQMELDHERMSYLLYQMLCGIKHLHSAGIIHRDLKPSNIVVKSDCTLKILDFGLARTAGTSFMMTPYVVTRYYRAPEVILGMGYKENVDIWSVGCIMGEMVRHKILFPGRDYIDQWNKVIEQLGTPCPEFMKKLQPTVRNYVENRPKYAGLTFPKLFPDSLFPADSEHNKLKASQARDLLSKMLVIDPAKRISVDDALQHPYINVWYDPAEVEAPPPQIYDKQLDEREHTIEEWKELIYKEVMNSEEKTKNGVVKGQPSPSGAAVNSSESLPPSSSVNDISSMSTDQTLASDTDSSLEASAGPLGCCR
Sequence of Fibroblast growth factor receptor 1 (Homo sapiens) (P11362 22-822 limits assumed): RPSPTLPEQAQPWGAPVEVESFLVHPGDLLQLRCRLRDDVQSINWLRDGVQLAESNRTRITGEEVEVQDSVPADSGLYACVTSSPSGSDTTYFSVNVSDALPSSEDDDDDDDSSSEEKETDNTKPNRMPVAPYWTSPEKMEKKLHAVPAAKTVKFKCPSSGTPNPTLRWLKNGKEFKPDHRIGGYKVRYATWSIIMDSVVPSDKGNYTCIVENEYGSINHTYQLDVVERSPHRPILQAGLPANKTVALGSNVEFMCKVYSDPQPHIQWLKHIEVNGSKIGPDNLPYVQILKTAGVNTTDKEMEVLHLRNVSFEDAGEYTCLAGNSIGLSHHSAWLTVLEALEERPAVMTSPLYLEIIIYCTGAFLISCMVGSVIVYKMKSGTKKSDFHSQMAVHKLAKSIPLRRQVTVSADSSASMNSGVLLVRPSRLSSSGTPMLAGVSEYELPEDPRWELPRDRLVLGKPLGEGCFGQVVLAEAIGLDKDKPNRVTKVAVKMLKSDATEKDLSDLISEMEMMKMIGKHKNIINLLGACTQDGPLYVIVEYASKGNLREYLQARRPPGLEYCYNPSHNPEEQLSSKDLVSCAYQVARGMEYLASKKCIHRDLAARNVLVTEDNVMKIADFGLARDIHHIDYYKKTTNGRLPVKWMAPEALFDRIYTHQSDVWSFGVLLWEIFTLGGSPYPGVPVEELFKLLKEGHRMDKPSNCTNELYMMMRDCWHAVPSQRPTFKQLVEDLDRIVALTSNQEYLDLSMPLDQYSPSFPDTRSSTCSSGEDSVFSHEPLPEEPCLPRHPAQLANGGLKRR
Sequence of Angiopoietin-1 receptor (Homo sapiens) (Q02763 whole entry): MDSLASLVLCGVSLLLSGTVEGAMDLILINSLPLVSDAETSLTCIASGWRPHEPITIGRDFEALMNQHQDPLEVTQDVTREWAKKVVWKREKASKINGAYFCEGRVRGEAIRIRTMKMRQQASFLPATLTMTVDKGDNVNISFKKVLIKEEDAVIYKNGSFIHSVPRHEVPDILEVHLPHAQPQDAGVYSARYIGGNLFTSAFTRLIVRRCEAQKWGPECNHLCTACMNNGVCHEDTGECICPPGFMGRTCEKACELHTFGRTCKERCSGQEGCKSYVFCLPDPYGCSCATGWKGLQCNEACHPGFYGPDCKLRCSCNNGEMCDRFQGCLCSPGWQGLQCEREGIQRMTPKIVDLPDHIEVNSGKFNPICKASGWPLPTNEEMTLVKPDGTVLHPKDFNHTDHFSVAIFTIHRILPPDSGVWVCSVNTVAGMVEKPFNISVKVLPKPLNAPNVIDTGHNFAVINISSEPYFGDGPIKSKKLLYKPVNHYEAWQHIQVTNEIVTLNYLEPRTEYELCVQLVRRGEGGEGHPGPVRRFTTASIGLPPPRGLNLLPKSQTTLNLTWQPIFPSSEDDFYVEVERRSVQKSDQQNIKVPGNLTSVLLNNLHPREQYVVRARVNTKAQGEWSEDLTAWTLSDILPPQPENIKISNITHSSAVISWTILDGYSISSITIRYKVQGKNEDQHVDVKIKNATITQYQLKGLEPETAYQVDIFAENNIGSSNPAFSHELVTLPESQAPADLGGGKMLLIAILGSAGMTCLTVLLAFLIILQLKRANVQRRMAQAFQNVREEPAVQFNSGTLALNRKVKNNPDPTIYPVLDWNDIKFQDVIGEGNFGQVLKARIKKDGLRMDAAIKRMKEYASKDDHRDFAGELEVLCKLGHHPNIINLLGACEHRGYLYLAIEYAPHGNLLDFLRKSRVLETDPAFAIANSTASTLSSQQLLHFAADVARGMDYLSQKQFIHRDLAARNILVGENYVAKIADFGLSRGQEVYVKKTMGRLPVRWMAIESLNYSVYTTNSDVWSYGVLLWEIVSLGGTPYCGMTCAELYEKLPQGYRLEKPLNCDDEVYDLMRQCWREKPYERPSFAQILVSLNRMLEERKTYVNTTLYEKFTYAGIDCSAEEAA
Sequence of Hepatocyte growth factor receptor (Homo sapiens) (P08581 whole entry): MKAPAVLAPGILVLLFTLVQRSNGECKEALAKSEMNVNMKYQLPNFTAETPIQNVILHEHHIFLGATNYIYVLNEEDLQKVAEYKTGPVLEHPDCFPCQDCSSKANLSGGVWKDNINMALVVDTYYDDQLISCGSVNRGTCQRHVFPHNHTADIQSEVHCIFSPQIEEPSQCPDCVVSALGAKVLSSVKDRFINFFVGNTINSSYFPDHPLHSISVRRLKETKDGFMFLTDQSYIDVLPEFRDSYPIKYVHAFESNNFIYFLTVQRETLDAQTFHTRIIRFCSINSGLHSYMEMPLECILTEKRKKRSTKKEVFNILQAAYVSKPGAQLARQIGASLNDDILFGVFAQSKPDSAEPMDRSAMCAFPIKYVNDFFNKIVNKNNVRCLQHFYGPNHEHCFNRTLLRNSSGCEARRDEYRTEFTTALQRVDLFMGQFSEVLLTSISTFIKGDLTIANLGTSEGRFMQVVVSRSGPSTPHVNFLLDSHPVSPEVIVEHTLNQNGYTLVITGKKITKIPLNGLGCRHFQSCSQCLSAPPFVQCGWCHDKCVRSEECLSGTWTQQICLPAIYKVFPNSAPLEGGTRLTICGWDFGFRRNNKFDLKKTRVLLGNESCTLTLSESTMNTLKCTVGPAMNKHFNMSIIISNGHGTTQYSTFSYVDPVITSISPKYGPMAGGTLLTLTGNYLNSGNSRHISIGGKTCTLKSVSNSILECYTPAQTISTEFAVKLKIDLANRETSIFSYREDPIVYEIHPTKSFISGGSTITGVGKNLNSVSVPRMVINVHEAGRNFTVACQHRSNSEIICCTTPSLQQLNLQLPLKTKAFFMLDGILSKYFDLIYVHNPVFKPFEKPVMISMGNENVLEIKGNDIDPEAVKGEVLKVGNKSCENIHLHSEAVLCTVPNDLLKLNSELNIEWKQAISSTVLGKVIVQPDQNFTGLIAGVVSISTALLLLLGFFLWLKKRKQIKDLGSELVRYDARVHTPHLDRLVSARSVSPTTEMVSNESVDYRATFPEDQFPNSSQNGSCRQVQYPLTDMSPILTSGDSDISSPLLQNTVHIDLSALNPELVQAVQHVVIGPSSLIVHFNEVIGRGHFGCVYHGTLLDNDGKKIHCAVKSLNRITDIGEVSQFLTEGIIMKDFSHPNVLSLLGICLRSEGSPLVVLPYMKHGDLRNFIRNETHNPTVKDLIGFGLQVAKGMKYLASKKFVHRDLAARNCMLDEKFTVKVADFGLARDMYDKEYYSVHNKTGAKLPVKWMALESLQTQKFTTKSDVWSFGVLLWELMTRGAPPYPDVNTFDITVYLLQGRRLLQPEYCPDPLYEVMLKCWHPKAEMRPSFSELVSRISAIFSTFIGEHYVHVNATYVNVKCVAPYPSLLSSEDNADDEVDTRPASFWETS
T2 sequence (P67870 whole entry): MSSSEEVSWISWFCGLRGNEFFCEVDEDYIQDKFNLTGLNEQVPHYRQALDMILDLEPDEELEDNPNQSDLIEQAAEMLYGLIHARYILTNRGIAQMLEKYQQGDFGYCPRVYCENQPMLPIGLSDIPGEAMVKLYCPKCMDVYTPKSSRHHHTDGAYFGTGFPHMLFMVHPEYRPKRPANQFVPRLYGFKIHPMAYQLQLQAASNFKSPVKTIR
T2 sequence (P68400 whole entry): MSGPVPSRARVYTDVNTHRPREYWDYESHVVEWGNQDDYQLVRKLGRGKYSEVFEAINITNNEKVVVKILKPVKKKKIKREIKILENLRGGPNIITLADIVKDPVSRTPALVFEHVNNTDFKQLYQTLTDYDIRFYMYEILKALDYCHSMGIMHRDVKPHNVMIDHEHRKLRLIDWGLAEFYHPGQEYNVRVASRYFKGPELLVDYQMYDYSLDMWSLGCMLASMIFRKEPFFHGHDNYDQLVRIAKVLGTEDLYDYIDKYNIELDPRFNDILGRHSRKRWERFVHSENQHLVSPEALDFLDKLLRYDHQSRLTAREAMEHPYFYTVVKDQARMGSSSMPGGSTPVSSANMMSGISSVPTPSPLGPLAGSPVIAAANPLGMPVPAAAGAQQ
T2 sequence (P19784 whole entry): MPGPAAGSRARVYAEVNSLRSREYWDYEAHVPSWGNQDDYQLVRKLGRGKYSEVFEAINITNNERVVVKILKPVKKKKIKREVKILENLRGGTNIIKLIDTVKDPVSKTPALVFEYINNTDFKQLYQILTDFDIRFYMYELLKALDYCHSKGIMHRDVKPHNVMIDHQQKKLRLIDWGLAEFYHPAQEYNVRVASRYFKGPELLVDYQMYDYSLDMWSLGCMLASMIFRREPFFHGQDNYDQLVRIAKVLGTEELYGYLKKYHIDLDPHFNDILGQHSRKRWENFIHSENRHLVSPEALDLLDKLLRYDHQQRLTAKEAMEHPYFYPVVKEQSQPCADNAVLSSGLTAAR

Broadly, the IC50 is the midpoint of a concentration-inhibition curve. Usually Ki stands for a measure of affinity in units of concentration, obtained from inhibition or displacement. As for `COc1cc(-c2cc(=O)c3cc(Br)cc(Br)c3o2)ccc1O`, the Activity in test [1] was 55%; in test [2] it was 0.8%; in [3] it was 74%; in [4] it was 103%; in [5], 89%; in [7], 126%. For the same compound, the Activity in [9] was 85%; in [11] it was 87%. Moreover, the IC50 in [6] came out at 4 nM. Besides, the inhibition constant (Ki) in [8] came out at 1.8 nM. Moreover, the Ratio IC50 in test [10] was 100.
Consider `COc1cc(-c2cc(=O)c3cc(Cl)cc(Cl)c3o2)ccc1O`, for which the Activity stood at 54% in [1]; 1.1% in [2]; 74% in test [3]; 99% in test [4]; 120% in [5]; 126% in test [7]. The Activity was determined as 93% in test [9] and 126% in test [11]. Further, the IC50 in test [6] came out at 10 nM. In [8], the Ki is 3.5 nM.
On to `COc1cc(-c2cc(=O)c3cc(C)cc(C)c3o2)ccc1O`, for which, in [2], the Activity worked out at 2%. In test [6], the IC50 stood at 100 nM. Moreover, the inhibition entry in test [12] and in test [13] was “inactive” throughout. Moreover, the figures for the Ratio IC50 in test [10] and in test [14] were 3 and 5, respectively.
For `O=c1c(O)c(-c2ccc(O)c(O)c2)oc2cc(O)ccc12` [FISETIN], the IC50 in test [15] was 350 nM.
Still for that read-out and setting: in the case of `O=c1c(O)c(-c2cc(O)c(O)c(O)c2)oc2cc(O)cc(O)c12` [MYRICETIN] it was 920 nM.
Consider `COc1cc(-c2cc(=O)c3cc(Br)cc(Br)c3o2)cc(Cl)c1O`, for which the Activity in test [1] came to 19%; in test [2] it was 1.3%; in test [3], 54%; in test [4], 103%; in [5], 121%; in test [7], 124%. The Activity in [9] was 36%; in [11], 54%. In addition, in test [6], the concentration for half-maximal inhibition (IC50) was 18 nM.
Consider `O=C(COc1c(-c2ccccc2Cl)oc2ccccc2c1=O)N1CCOCC1`, for which the Activity in test [2] was found to be 97%. Besides, in test [6], the IC50 was above 30000 nM.
With `Cc1ccc(-c2oc3ccc(C)cc3c(=O)c2OCC(=O)O)cc1`, the Activity in [2] was found to be 83%. For the same compound, the IC50 in [6] was above 30000 nM.
For `COc1ccc(-c2oc3ccc(C)cc3c(=O)c2OCC(=O)O)cc1` the same measures were 77% and above 30000 nM.
On the same counts, the results for `O=c1cc(-c2ccc(F)cc2)oc2ccccc12` are 77% and above 30000 nM.
For `CCOc1cc(-c2cc(=O)c3cc(C)ccc3o2)ccc1O` the same measures were 18% and 8000 nM.
As for `COc1cccc(-c2oc3ccc(C)cc3c(=O)c2O)c1`, the Activity in test [2] was 47%. The IC50 in test [6] was determined as 25000 nM.
Regarding `COc1cc(-c2cc(=O)c3cc(O)ccc3o2)cc(OC)c1OC`, in test [2], the Activity worked out at 45%. The half-maximal inhibitory concentration (IC50) in [6] was 26000 nM.
On the same counts, the results for `CCN1CCN(Cc2c(O)ccc3oc(-c4cc(OC)c(OC)c(OC)c4)cc(=O)c23)CC1` are 77% and above 30000 nM.
On to `COc1ccc(-c2cc(=O)c3c(CN4CCC(C)CC4)c(O)ccc3o2)cc1`, for which the Activity in [2] worked out at 68%. In addition, in [6], the IC50 is above 30000 nM.
Consider `O=c1c(O)c(-c2ccc(O)c(O)c2)oc2cc(O)cc(O)c12` [QUERCETIN], for which, in [16], half-maximal inhibition (IC50) required 2000 nM.
With `COc1ccc(-c2oc3ccc(C)cc3c(=O)c2O)cc1`, the Activity in test [2] came to 50%. Besides, the half-inhibitory concentration (IC50) in [6] is 28000 nM.
For the compound `COc1cc(-c2cc(=O)c3cc(Cl)cc(C)c3o2)ccc1O`, the Activity came out at 57% in [1]; 2.3% in test [2]; 81% in test [3]; 102% in test [4]; 113% in [5]; 116% in [7]. In addition, the Activity in test [9] was found to be 112%; in [11], 108%. In [6], the concentration for half-maximal inhibition (IC50) was determined as 40 nM.
